Measured values from patent US12466827B2, “1,3,4-oxadiazole derivative compounds as histone deacetylase 6 inhibitor, and the pharmaceutical composition comprising the same” (CHONG KUN DANG PHARMACEUTICAL CORP., priority 2020, dated 2025).

Assays:
human recombinant HDAC1 = target: T1, human recombinant HDAC1 (Homo sapiens, UniProt Q13547); assay: In vitro HDAC enzyme activity inhibition assay (HDAC1); assay type: biochemical; settings: Fluor de Lys-SIRT1 substrate 10 μM, 30° C., 60 minutes, fluorescence
T1 construct: purchased Enzo Life Sciences, Inc. BML-SE456
Outline: (§1)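 Fluorimetric deacetylase kit: human recombinant HDAC1 or HDAC6 (0.3 μg) with 10 μM Fluor de Lys-SIRT1 substrate and 5-fold diluted compounds, 60 min at 30° C. Developer added for 30 min, fluorescence read at Ex 360/Em 460, IC50 calculated.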

human recombinant HDAC6 = target: T2, human recombinant HDAC6 (Homo sapiens, UniProt Q9UBN7); assay: In vitro HDAC enzyme activity inhibition assay (HDAC6); assay type: biochemical; settings: for HDAC6 selectivity (fold): HDAC6 over HDAC1; for IC50: same protocol as the HDAC1 test, human recombinant HDAC6 (Calbiochem)
T2 construct: purchased Calbiochem Inc. 382180
T2 sequence (Q9UBN7 1-1215): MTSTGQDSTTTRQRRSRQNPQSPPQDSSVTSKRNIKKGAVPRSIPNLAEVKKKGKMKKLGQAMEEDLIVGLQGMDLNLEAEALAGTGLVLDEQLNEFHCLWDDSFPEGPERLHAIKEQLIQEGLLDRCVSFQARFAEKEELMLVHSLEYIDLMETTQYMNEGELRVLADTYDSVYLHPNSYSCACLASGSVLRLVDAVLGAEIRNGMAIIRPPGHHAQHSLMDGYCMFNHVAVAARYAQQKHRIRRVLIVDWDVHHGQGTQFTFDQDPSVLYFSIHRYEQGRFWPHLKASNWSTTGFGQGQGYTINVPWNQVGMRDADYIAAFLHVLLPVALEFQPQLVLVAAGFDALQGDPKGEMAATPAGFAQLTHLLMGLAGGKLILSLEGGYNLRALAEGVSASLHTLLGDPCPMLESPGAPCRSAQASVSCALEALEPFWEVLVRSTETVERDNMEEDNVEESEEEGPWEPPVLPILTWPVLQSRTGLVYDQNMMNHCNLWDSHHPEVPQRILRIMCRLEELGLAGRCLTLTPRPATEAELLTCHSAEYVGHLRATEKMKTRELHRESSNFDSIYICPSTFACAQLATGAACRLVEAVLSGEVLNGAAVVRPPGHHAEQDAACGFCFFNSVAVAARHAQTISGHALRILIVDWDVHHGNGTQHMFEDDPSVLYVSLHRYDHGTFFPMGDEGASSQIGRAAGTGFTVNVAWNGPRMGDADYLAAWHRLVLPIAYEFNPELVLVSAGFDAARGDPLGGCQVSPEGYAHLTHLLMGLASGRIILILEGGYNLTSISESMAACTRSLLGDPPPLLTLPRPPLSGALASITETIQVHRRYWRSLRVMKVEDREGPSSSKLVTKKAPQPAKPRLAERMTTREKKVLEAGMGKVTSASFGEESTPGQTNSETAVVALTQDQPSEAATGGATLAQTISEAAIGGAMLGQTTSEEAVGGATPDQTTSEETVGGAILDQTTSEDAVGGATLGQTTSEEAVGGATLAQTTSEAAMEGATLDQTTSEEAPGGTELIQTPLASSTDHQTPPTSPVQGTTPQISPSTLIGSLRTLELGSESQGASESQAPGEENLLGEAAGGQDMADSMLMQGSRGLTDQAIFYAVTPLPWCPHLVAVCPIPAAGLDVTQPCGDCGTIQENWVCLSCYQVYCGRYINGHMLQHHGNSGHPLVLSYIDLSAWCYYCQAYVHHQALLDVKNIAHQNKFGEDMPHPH
Outline: as §1

T1 sequence (Q13547 whole entry): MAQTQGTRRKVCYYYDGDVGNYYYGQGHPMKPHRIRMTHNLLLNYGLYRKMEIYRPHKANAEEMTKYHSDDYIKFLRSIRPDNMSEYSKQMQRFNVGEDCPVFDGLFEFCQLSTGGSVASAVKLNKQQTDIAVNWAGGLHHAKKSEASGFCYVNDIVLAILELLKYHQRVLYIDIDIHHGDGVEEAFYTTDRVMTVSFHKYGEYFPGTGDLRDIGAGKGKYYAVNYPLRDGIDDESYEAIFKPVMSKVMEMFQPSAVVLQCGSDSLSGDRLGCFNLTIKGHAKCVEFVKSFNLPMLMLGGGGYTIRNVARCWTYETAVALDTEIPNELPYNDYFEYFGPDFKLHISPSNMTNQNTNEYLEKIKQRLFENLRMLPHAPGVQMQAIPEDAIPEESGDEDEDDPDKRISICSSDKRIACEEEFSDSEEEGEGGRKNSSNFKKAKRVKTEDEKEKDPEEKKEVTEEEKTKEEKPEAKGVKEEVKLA

SMILES	IC50 (human recombinant HDAC1) [µM]	HDAC6 selectivity (fold) (human recombinant HDAC6)	IC50 (human recombinant HDAC6) [µM]
O=C(C1COC1)N1CCN(S(=O)(=O)N(Cc2cn3ccc(-c4nnc(C(F)F)o4)cc3n2)c2cccc(F)c2)CC1 [Compound 4310, N-((7-(5-(difluoromethyl)-1,3,4-oxadiazol-2-yl)imidazo[1,2-a]pyridin-2-yl)methyl)-N-(3-fluorophenyl)-4-(oxetane-3-carbonyl)piperazine-1-sulfonamide]	> 50	681	0.0734
O=C(N1CCN(S(=O)(=O)N(Cc2cn3ccc(-c4nnc(C(F)F)o4)cc3n2)c2cccc(F)c2)CC1)C(F)(F)F [Compound 4311, N-((7-(5-(difluoromethyl)-1,3,4-oxadiazol-2-yl)imidazo[1,2-a]pyridin-2-yl)methyl)-N-(3-fluorophenyl)-4-(2,2,2-trifluoroacetyl)piperazine-1-sulfonamide]	> 50	510	0.098
CS(=O)(=O)N1CCN(S(=O)(=O)N(Cc2cn3ccc(-c4nnc(C(F)F)o4)cc3n2)c2cccc(F)c2)CC1 [Compound 4312, N-((7-(5-(difluoromethyl)-1,3,4-oxadiazol-2-yl)imidazo[1,2-a]pyridin-2-yl)methyl)-N-(3-fluorophenyl)-4-(methylsulfonyl)piperazine-1-sulfonamide]	> 50	530	0.0943
COC(=O)N1CCN(S(=O)(=O)N(Cc2cn3ccc(-c4nnc(C(F)F)o4)cc3n2)c2cccc(F)c2)CC1 [Compound 4313, methyl 4-(N-((7-(5-(difluoromethyl)-1,3,4-oxadiazol-2-yl)imidazo[1,2-a]pyridin-2-yl)methyl)-N-(3-fluorophenyl)sulfamoyl)piperazine-1-carboxylate]	> 50	371	0.135
CN(C)C(=O)N1CCN(S(=O)(=O)N(Cc2cn3ccc(-c4nnc(C(F)F)o4)cc3n2)c2cccc(F)c2)CC1 [Compound 4314, 4—(N-((7-(5-(difluoromethyl)-1,3,4-oxadiazol-2-yl)imidazo[1,2-a]pyridin-2-yl)methyl)-N-(3-fluorophenyl)sulfamoyl)-N, N-dimethylpiperazine-1-carboxamide]	> 50	462	0.108
O=S(=O)(N1CCN(c2ncccn2)CC1)N(Cc1cn2ccc(-c3nnc(C(F)F)o3)cc2n1)c1cccc(F)c1 [Compound 4315, N-((7-(5-(difluoromethyl)-1,3,4-oxadiazol-2-yl)imidazo[1,2-a]pyridin-2-yl)methyl)-N-(3-fluorophenyl)-4-(pyrimidin-2-yl)piperazine-1-sulfonamide]	> 50	309	0.162
O=S(=O)(C1CCN(C2CC3(CCC3)C2)CC1)N(Cc1cn2ccc(-c3nnc(C(F)F)o3)cc2n1)c1cccc(F)c1 [Compound 4616, N-((7-(5-(difluoromethyl)-1,3,4-oxadiazol-2-yl)imidazo[1,2-a]pyridin-2-yl)methyl)-N-(3-fluorophenyl)-1-(spiro[3.3]heptan-2-yl)piperidine-4-sulfonamide]	> 50	243	0.205
O=S(=O)(C1CCN(C2CC3(COC3)C2)CC1)N(Cc1cn2ccc(-c3nnc(C(F)F)o3)cc2n1)c1cccc(F)c1 [Compound 4617, N-((7-(5-(difluoromethyl)-1,3,4-oxadiazol-2-yl)imidazo[1,2-a]pyridin-2-yl)methyl)-N-(3-fluorophenyl)-1-(2-oxaspiro[3.3]heptan-6-yl)piperidine-4-sulfonamide]	> 50	666	0.075
O=S(=O)(N1CCN(C2CC3(CCC3)C2)CC1)N(Cc1cn2ccc(-c3nnc(C(F)F)o3)cc2n1)c1cccc(F)c1 [Compound 4622, N-((7-(5-(difluoromethyl)-1,3,4-oxadiazol-2-yl)imidazo[1,2-a]pyridin-2-yl)methyl)-N-(3-fluorophenyl)-4-(spiro[3.3]heptan-2-yl)piperazine-1-sulfonamide]	> 50	274	0.182
O=S(=O)(N1CCN(C2CC3(COC3)C2)CC1)N(Cc1cn2ccc(-c3nnc(C(F)F)o3)cc2n1)c1cccc(F)c1 [Compound 4623, N-((7-(5-(difluoromethyl)-1,3,4-oxadiazol-2-yl)imidazo[1,2-a]pyridin-2-yl)methyl)-N-(3-fluorophenyl)-4-(2-oxaspiro[3.3]heptan-6-yl)piperazine-1-sulfonamide]	> 50	806	0.062
CN1CC2(C1)CN(S(=O)(=O)N(Cc1cn3ccc(-c4nnc(C(F)F)o4)cc3n1)c1ccccc1)C2 [Compound 4624, N-((7-(5-(difluoromethyl)-1,3,4-oxadiazol-2-yl)imidazo[1,2-a]pyridin-2-yl)methyl)-6-methyl-N-phenyl-2,6-diazaspiro[3.3]heptan-2-sulfonamide]	> 50	595	0.084
CC(C)(C)OC(=O)N1CCC(S(=O)(=O)N(Cc2cn3ccc(-c4nnc(C(F)(F)F)o4)cc3n2)c2cccc(F)c2)CC1 [Compound 6893, tert-butyl 4-(N-(3-fluorophenyl)-N-((7-(5-(trifluoromethyl)-1,3,4-oxadiazol-2-yl)imidazo[1,2-a]pyridin-2-yl)methyl)sulfamoyl)piperidine-1-carboxylate]	> 50	16	3.12
